According to patent US12662491B2 (Redona Therapeutics, Inc., priority 2020, dated 2026):

These compounds were tested against T1, Zcchc11 enzyme (Homo sapiens, UniProt Q5TAX3) (assay: TUTase assay (Zcchc11 assay, Lin28a-dependent polyuridylation of pre-let-7)). Details: LIN28A 10 nM, Zcchc11 0.2 nM, 5′-fluorescein pre-let-7 miRNA 2 nM, UTP 5 uM, room temperature, 30 minutes pre-incubation; read-out: Potency Lin28a-dep Z11 IC50.
T1 construct: made in house; host or cells: HEK293 cells (Zcchc11); E. coli Rosetta II (LIN28A)
T1 sequence (Q5TAX3 212-1420): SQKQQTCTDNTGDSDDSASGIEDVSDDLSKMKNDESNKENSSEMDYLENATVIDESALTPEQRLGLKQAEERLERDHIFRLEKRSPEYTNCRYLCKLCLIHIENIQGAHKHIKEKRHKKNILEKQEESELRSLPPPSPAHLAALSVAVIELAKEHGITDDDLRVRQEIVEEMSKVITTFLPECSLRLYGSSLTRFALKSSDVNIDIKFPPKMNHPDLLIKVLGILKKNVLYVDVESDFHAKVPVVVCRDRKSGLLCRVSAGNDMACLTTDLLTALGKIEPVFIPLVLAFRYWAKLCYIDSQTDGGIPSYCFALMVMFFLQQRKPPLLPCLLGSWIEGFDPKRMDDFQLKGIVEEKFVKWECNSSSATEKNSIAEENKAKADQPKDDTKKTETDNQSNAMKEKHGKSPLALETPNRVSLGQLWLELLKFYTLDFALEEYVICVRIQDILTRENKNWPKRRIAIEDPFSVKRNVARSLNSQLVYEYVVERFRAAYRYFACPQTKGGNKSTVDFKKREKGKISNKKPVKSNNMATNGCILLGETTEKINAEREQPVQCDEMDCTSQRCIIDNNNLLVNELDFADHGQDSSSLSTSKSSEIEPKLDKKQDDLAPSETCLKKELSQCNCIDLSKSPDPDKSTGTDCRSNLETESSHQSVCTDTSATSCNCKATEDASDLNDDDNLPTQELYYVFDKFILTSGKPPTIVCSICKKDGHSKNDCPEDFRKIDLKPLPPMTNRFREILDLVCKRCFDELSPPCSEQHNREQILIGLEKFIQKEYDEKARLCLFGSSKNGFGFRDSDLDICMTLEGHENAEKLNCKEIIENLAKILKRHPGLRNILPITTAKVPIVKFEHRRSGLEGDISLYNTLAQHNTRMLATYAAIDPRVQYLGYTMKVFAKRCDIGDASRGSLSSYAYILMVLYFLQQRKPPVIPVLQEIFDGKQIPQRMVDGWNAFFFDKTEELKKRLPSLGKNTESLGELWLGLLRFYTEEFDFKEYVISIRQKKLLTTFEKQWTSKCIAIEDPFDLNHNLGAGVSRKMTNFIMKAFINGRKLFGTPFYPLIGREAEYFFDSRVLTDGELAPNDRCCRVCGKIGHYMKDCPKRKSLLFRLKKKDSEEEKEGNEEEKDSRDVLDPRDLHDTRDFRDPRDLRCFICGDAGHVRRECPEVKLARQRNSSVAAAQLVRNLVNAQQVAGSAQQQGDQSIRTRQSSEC
Assay type: biochemical
Outline: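 HEK293-expressed human Zcchc11 (residues 212-1420, 0.2 nM) with 10 nM LIN28A and 2 nM 5′-fluorescein pre-let-7, preincubated 30 min at room temperature, pH 7.3. Started with 5 uM UTP; poly(U) tails quenched by 3′-rhodamine A20 probe, read kinetically. IC50 from early-rate four-parameter fit; no-UTP wells define 0%.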

IC50 | Compound
≤ 1000 nM | O=C(O)c1cn(-c2cnccn2)c2nc(N3CCC[C@@H]3COc3ncccc3Cl)c(Cl)cc2c1=O [Example 19, (R)-6-chloro-7-(2-(((3-chloropyridin-2-yl)oxy)methyl)pyrrolidin-1-yl)-4-oxo-1-(pyrazin-2-yl)-1,4-dihydro-1,8-naphthyridine-3-carboxylic acid]
1000 to 10000 nM | CN(C[C@H]1CCCN1c1cc2c(cc1F)c(=O)c(C(=O)O)cn2-c1ccc(O)cc1)c1ncccc1Cl [Example 10, (R)-7-(2-(((3-chloropyridin-2-yl)(methyl)amino)methyl)pyrrolidin-1-yl)-6-fluoro-1-(4-hydroxyphenyl)-4-oxo-1,4-dihydroquinoline-3-carboxylic acid]
≤ 1000 nM | CN(C)C1CN(c2ccc(-n3cc(C(=O)O)c(=O)c4cc(Cl)c(N5C(COc6ncccc6Cl)CCS5(=O)=O)cc43)cn2)C1 (centres unmarked) [Example 47, 6-chloro-7-(3-(((3-chloropyridin-2-yl)oxy)methyl)-1,1-dioxidoisothiazolidin-2-yl)-1-(6-(3-(dimethylamino)azetidin-1-yl)pyridin-3-yl)-4-oxo-1,4-dihydroquinoline-3-carboxylic acid]

Same assay, conditions: Lin28a-dependent Zcchc11 (Z11) TUTase activity; read-out: Potency Lin28a-dep Z11 IC50

Compound | IC50
O=C(O)c1cn(-c2cnn(C3CNC3)c2)c2cc(N3CCC[C@@H]3COc3ncccc3F)c(Cl)cc2c1=O [Compound 246, 1-[1-(azetidin-3-yl)pyrazol-4-yl]-6-chloro-7-[(2R)-2-[[(3-fluoropyridin-2-yl)oxy]methyl]pyrrolidin-1-yl]-4-oxoquinoline-3-carboxylic acid] | ≤ 1000 nM
O=C(O)c1cn(-c2ccc3c(c2)CNC3)c2cc(N3CCC[C@@H]3COc3ncccc3Cl)c(Cl)cc2c1=O [Compound 236, 6-chloro-7-[(2R)-2-[[(3-chloropyridin-2-yl)oxy]methyl]pyrrolidin-1-yl]-1-(2,3-dihydro-1H-isoindol-5-yl)-4-oxoquinoline-3-carboxylic acid] | ≤ 1000 nM
Cc1ccc(OC[C@H]2CCCN2c2cc3c(cc2F)c(=O)c(C(=O)O)cn3-c2ccccc2)nc1 [Compound 93, (R)-6-fluoro-7-(2-(((5-methyl-pyridin-2-yl)oxy)methyl)pyrrolidin-1-yl)-4-oxo-1-phenyl-1,4-dihydro-quinoline-3-carboxylic acid] | ≤ 1000 nM
O=C(O)c1cn(-c2ccc(O)c(Cl)c2)c2cc(N3CCC[C@@H]3COc3ncccc3Cl)c(Cl)cc2c1=O [Compound 131, (R)-6-chloro-1-(3-chloro-4-hydroxy-phenyl)-7-(2-(((3-chloropyridin-2-yl)oxy)methyl)pyrrolidin-1-yl)-4-oxo-1,4-dihydro-quinoline-3-carboxylic acid] | ≤ 1000 nM

Second part, the compound after the results:

IC50 | Compound
≤ 1000 nM | CN(C)C1CN(c2ccc(-n3cc(C(=O)O)c(=O)c4cc(Cl)c(N5CCC[C@@H]5COc5nccn6ccnc56)cc43)cn2)C1 [Compound 172, (R)-6-chloro-1-(6-(3-(dimethyl-amino)azetidin-1-yl)pyridin-3-yl)-7-(2-((imidazo [1,2-a]pyrazin-8-yloxy)methyl)pyrrolidin-1-yl)-4-oxo-1,4-dihydro-quinoline-3-carboxylic acid]
≤ 1000 nM | CN(C)c1ccc(Cl)c(OC[C@H]2CCCN2c2cc3c(cc2Cl)c(=O)c(C(=O)O)cn3-c2ccc(N3CC(N(C)C)C3)nc2)n1 [Compound 350, (R)-6-chloro-7-(2-(((3-chloro-6-(dimethyl-amino)pyridin-2-yl)oxy)methyl)pyrrolidin-1-yl)-1-(6-(3-(dimethyl-amino)azetidin-1-yl)pyridin-3-yl)-4-oxo-1,4-dihydro-quinoline-3-carboxylic acid]

Same assay, conditions: Lin28a-dependent Zcchc11 (Z11) TUTase assay; read-out: Potency Lin28a-dep Z11 IC50

Compound | IC50
NC1CC(n2cc(C(=O)O)c(=O)c3cc(Cl)c(N4CCC[C@@H]4COc4ncccc4Cl)cc32)C1 (stereo partly drawn) [Example 471, (R)-1-(3-aminocyclobutyl)-6-chloro-7-(2-(((3-chloropyridin-2-yl)oxy)methyl)pyrrolidin-1-yl)-4-oxo-1,4-dihydroquinoline-3-carboxylic acid] | 1000 to 10000 nM
CN(C)C1CN(c2ccc(-n3cc(C(=O)O)c(=O)c4cc(Cl)c(N5C[C@@H](F)C[C@@H]5COc5ncccc5Cl)cc43)cn2)C1 [Example 464, 6-chloro-7-((2R,4S)-2-(((3-chloropyridin-2-yl)oxy)methyl)-4-fluoropyrrolidin-1-yl)-1-(6-(3-(dimethylamino)azetidin-1-yl)pyridin-3-yl)-4-oxo-1,4-dihydroquinoline-3-carboxylic acid] | ≤ 1000 nM
COc1cnc(OC[C@H]2C[C@H]3C[C@H]3N2c2cc3c(cc2Cl)c(=O)c(C(=O)O)cn3-c2ccc(N3CC(N(C)C)C3)nc2)c(Cl)c1 [Example 662, 6-chloro-7-((1R,3R,5R)-3-(((3-chloro-5-methoxypyridin-2-yl)oxy)methyl)-2-azabicyclo[3.1.0]hexan-2-yl)-1-(6-(3-(dimethylamino)azetidin-1-yl)pyridin-3-yl)-4-oxo-1,4-dihydroquinoline-3-carboxylic acid] | ≤ 1000 nM
COCCN(C)C1CN(c2ccc(-n3cc(C(=O)O)c(=O)c4cc(Cl)c(N5CCC[C@@H]5COc5ncccc5Cl)cc43)cn2)C1 [Example 495, (R)-6-chloro-7-(2-(((3-chloropyridin-2-yl)oxy)methyl)pyrrolidin-1-yl)-1-(6-(3-((2-methoxyethyl) (methyl)amino)azetidin-1-yl)pyridin-3-yl)-4-oxo-1,4-dihydroquinoline-3-carboxylic acid] | ≤ 1000 nM
CN1CC(c2ccc(-n3cc(C(=O)O)c(=O)c4cc(Cl)c(N5CCC[C@@H]5COc5ncccc5Cl)cc43)cn2)C1 [Example 626, (R)-6-chloro-7-(2-(((3-chloropyridin-2-yl)oxy)methyl)pyrrolidin-1-yl)-1-(6-(1-methyl-azetidin-3-yl)pyridin-3-yl)-4-oxo-1,4-dihydroquinoline-3-carboxylic acid] | ≤ 1000 nM
O=C(O)c1cn(-c2cncnc2)c2cc(N3CCC[C@@H]3COc3ncccc3Cl)c(Cl)cc2c1=O [Example 497] | ≤ 1000 nM
O=C(O)c1cn(C2CCC2)c2cc(N3CCC[C@@H]3COc3ccccn3)c(F)cc2c1=O [Example 448, (R)-1-cyclobutyl-6-fluoro-4-oxo-7-(2-((pyridin-2-yloxy)methyl)pyrrolidin-1-yl)-1,4-dihydroquinoline-3-carboxylic acid] | 1000 to 10000 nM

More lines, now with the values ahead:

IC50 | Compound
1000 to 10000 nM | COc1ccc(Cl)c(-n2cc(C(=O)O)c(=O)c3cc(F)c(N4CCC[C@@H]4COc4ccccn4)cc32)c1 [Example 398, (R)-1-(2-chloro-5-methoxyphenyl)-6-fluoro-4-oxo-7-(2-((pyridin-2-yloxy)methyl)pyrrolidin-1-yl)-1,4-dihydroquinoline-3-carboxylic acid]
≤ 1000 nM | Cc1cccnc1OC[C@H]1CCCN1c1cc2c(cc1Cl)c(=O)c(C(=O)O)cn2C1(C)CC1 [Example 460, (R)-6-chloro-1-(1-methylcyclo-propyl)-7-(2-(((3-methylpyridin-2-yl)oxy)methyl)pyrrolidin-1-yl)-4-oxo-1,4-dihydroquinoline-3-carboxylic acid]
1000 to 10000 nM | O=C(O)c1cn(-c2ccc(F)c(F)c2)c2cc(N3CCC[C@@H]3COc3ccccn3)c(F)cc2c1=O [Example 379, (R)-1-(3,4-difluorophenyl)-6-fluoro-4-oxo-7-(2-((pyridin-2-yloxy)methyl)pyrrolidin-1-yl)-1,4-dihydroquinoline-3-carboxylic acid]
≤ 1000 nM | CN1CC2(C1)CN(c1ccc(-n3cc(C(=O)O)c(=O)c4cc(Cl)c(N5CCC[C@@H]5COc5ncccc5Cl)cc43)cn1)C2 [Example 520, (R)-6-chloro-7-(2-(((3-chloropyridin-2-yl)oxy)methyl)pyrrolidin-1-yl)-1-(6-(6-methyl-2,6-diazaspiro[3.3]heptan-2-yl)pyridin-3-yl)-4-oxo-1,4-dihydroquinoline-3-carboxylic acid]
